Here are results for two substances from patent US7820790B2, “IL-6 binding proteins” (Amgen Mountain View Inc., priority 2005, dated 2010).

The subject of experiment [1] is Human heparinized-whole blood. As to the kind of experiment: IL-6 stimulation of IgE in human whole blood. It is filed as cell-based. Conditions: 50 ng/ml IL-6, 6.5 hr; compared to unstimulated controls or anti-IL-6 mAb controls. The method, then:
Human heparinized-whole blood was obtained from six normal individuals from Stanford University Blood Bank. The avimer used in these experiments was generated as described in the above examples.
Briefly, 500 ul of heparinized human blood from several donors was cultured in 12×75 mm tubes or individual wells of a 24 well plate in the presence of 50 ng/ml of human IL-6; exemplary IL-6/IgG binding tetramers, a negative control avimer, 0.01-600 nM; anti-IL-6 monoclonal antibody (Clone 6708-111, R&D Systems) or mouse IgG1 isotype control antibody (eBioscience), 3, 10 or 30 ug/ml, or no inhibitors. Inhibitors or controls were diluted in RPMI1640+10% human AB serum before addition to the cultures. Final volume was 1 ml per sample.
Samples were incubated for 6.5 hr at 37° C. with 5% CO2. Samples were removed from incubator and centrifuged at 1500 rpm for 10 minutes at room temperature. Plasma samples were divided in two portions and one set was shipped to Rules Based Medicine for determination of the concentrations of IL-6- and avimer-regulated analytes. The second set of plasma samples was stored at −80° C.

Experiment [2] concerns TF-1 cells. As to the kind of experiment: Stimulation of TF-1 cell proliferation by rhIL-6 (control experiments). It is filed as cell-based, human. The protocol:
TF-1, a GM-CSF dependent human erythroleukemia cell line, was purchased from ATCC(CRL-2003). IL-6 is a potent stimulator of TF-1 cell proliferation. The use of TF-1 cells for determining efficacy of IL-6, IL-6R, and/or gp130 inhibitors is well-established in the art.
TF-1 cells were maintained in growth medium (RPMI 1640 supplemented with 50 uM 2-ME, antibiotic-antimycotic), 10% FBS and 5 ng/ml hGM-CSF (Leukine). Prior to assay, TF-1 cells were washed and cultured overnight in growth medium plus 1% FBS and Leukine. TF-1 cells were then washed three times with growth medium plus 1% FBS, without Leukine prior to the assay.
TF-1 cells (1×10^4/well) were cultured in the presence or absence of the anti-IL-6 inhibitors-hIL-6 mixture in a 96-well flat bottom plate (Becton Dickinson) in a final volume of 200 ul/well for 40 hr in a humidified incubator at 37° C., 5% CO2. Cells were pulse-labeled with 1 uCi/well of [^3H]-Thymidine (Amersham Biosciences) during the final 16 hr of culture. Plates were harvested with a semiautomatic cell harvester (Tomtec, Inc.) and [^3H]-Thymidine incorporation was measured using a Microbeta-counter (Wallac-Perkin Elmer). Results are expressed as average cpm from triplicate wells.
Control experiments determined 0.2 ng/mL as the EC50 of rhIL-6 for stimulation of TF-1 cell proliferation.

Experiment [3] has as its target T1, IL-6R (Homo sapiens, UniProt P08887).
T1 sequence (P08887 20-468): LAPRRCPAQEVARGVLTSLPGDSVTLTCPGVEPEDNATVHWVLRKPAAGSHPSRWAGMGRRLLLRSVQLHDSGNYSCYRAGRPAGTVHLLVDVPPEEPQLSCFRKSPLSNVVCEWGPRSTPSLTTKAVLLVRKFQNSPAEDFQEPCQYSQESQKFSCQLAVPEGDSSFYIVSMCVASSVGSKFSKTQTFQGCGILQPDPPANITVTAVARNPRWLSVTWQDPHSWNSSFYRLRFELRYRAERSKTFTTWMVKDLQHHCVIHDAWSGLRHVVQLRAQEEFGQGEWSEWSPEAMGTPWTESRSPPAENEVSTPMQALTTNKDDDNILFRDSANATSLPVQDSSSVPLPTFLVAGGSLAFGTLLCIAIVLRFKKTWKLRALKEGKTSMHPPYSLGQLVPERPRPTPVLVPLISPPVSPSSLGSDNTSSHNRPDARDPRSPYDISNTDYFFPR
Conditions: dose-dependent manner; Nishimoto et al; cited from earlier work.

In the case of “rhIL-6: recombinant human IL-6 (R&D Systems)”, in experiment [1], the “increase of IgE concentration in supernatants” value was 2-3 fold. For the same substance, in experiment [2], the “EC50 for stimulation of TF-1 cell proliferation” value was 0.2 ng/mL.
Turning to “MRA: humanized anti-IL-6R antibody (MRA)”, in experiment [3], the HDL increase was about 26% and the LDL increase is 12-23%.
